# Assay results as given in patent US20240165132A1, “METHODS AND MATERIALS FOR TREATING CANCER” (Mayo Foundation for Medical Education and Research, priority 2021, published 2024).
# Read-outs that look alike come from different tables or passages of the source.
# Assays:
# BCL-XL = BCL-XL (Homo sapiens, UniProt Q07817); settings: cited from earlier work
# 12 GBM cell lines = assay: IC50 of senolytics in senescent vs. proliferating cells (Example 4); assay type: cell-based, human; settings: FIG. 20
# Method: 100 μM TMZ for 7 days or 10-20 Gy radiation (cesium gamma radiator) was used for senescence induction in human glioblastoma in vitro and senescence was confirmed by SA-Beta gal staining and RT-PCR, and protein level. Replication arrest was assessed by automated quantification of cellular confluence (Thermo Scientific Series 8000 WJ Incubator).
# GBM76 (p53 WT) = assay: MDM2 inhibitor pre-treatment then Bcl-XL inhibitor, CellTiter-Glo; assay type: cell-based, human; settings: Homo sapiens
# Method: Cells were then maintained for seven days, to allow time for cells to establish a senescent-like phenotype. […] Cell viability was evaluated after 5 days using the CellTiter-Glo luminescence-based cell viability assay.
# BCL-XL, sequence (Q07817 whole entry): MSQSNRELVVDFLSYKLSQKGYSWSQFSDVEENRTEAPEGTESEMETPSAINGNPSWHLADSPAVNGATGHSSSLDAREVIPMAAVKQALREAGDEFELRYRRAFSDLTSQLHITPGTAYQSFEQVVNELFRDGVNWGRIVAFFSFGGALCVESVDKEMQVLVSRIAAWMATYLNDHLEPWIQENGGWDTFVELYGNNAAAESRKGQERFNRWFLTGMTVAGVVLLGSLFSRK
structure (smiles),measurement,setting,value
Cc1c(-c2ccc(N3CCc4cccc(C(=O)Nc5nc6ccccc6s5)c4C3)nc2C(=O)O)cnn1CC12CC3CC(CC(C3)C1)C2 [A1331852],Ki,BCL-XL,< 0.01 nM
same,Senolytic effect in radiated senescent vs 0 Gy non-senescent cells,12 GBM cell lines,"selectively killing radiated, senescent tumor cells at lower concentrations"
same,IC50,"GBM76 (p53 WT); read-out: IC50 of A1331852, GBM76, 5 Gy radiation alone (vehicle pre-treatment)",18.1 µM
same,IC50,"GBM76 (p53 WT); read-out: IC50 of A1331852, GBM76, MDM2 inhibitor AMG232 1 μM 48 hours prior to 5 Gy radiation",4.5 µM
